Reference: patent US8481576B2 (Abbott GmbH & Co. KG, priority 2004, dated 2013)
Counter-ions that a name gives are not always drawn.

Each compound was assayed against T1, h5-HT5A receptor (Homo sapiens, UniProt P47898) (assay: [3H]5-CT binding assay h5-HT5A). Settings: membranes from HEK293 cells expressing h5-HT5A, 2.5 nM [3H]5-CT; read-out: Binding affinity 5-HT5A (Ki).
T1 construct: expressed in transfected cells; host or cells: HEK293
Protocol: 1. [^3H]5-CT binding assay h5-HT5A
Membranes from HEK293-cells, which permanently express the h5-HT5A receptor gene, were incubated in 100 mM Tris-HCl-buffer (pH 7.7), containing 1 mM EDTA in the presence of 2.5 nM [^3H]5-CT (600 μl total volume). The total binding is defined as the binding which is observed when the membranes are incubated alone in the presence of the radioligand. The inhibition induced by the compound is determined by incubation of cell membranes in the presence of the radioligand, and of different concentrations of the compound of interest. Unspecific binding is defined by the binding of [^3H]5-CT, which is obtained by incubation of the membranes as for the total binding but in the presence of 10 μM methiothepine. Following an incubation of 75 minutes at 30° C. the membrane suspension is filtered through GF/B-filters, wrapped in 0.03% PEI, wherein a Skatron® harvest system is used. The radioactivity retained in the filter is quantified by liquid scintillation counting.
In both assays, different concentrations of the test substances are used, and the Ki or the IC50 values are determined.

T1 sequence (P47898 whole entry): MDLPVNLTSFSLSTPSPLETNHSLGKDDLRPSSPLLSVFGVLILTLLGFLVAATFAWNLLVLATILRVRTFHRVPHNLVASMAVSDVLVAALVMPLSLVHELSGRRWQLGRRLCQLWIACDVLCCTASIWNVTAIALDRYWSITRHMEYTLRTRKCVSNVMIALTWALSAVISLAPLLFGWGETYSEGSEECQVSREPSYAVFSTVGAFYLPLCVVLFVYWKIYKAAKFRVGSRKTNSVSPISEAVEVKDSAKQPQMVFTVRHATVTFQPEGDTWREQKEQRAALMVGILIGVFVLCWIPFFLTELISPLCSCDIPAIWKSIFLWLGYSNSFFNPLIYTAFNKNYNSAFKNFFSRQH

Compound	Ki
COc1cccc(OC)c1CNC(=N)Nc1nc(-c2ccc3c(c2)CCO3)cs1 [Example 115, N-[4-(2,3-dihydro-1-benzofuran-5-yl)-1,3-thiazole-2-yl]-N′-(2,6-dimethoxybenzyl)guanidine]	< 50 nM
COc1cccc(OC)c1CNC(=N)Nc1nnc[nH]1 [Example 189, N-(2,6-Dimethoxybenzyl)-N′-4H-1,2,4-triazole-3-ylguanidine acetate]	< 50 nM
COc1ccc(F)cc1CNC(=N)Nc1nc(-c2ccccc2)cs1 [Example 129, N-(5-fluoro-2-methoxybenzyl)-N′-(4-phenyl-1,3-thiazole-2-yl)guanidine]	50 to 500 nM
CCOc1ccc2nc(NC(=N)NCc3ccccc3OC)sc2c1 [Example 170, N-(6-ethoxy-1,3-benzothiazole-2-yl)-N′-(2-methoxybenzyl)guanidine fumarate]	50 to 500 nM
COc1cccc(OC)c1CNC(=N)Nc1nc(-c2ccccc2C(F)(F)F)cs1 [Example 84, N-(2,6-dimethoxybenzyl)-N′-{4-[2-(trifluoromethyl)phenyl]-1,3-thiazole-2-yl}guanidine hydrobromide]	< 50 nM
COc1ccccc1CNC(=N)Nc1ccsc1 [Example 30, N-(2-methoxy-benzyl)-N′-thiophene-3-yl-guanidine acetate]	50 to 500 nM
COc1cccc(Cl)c1CNC(=N)Nc1nc(-c2ncc(F)cc2F)cs1 [Example 152, N-(2-chloro-6-methoxybenzyl)-N′-[4-(3,5-difluoropyridine-2-yl)-1,3-thiazole-2-yl]guanidine]	< 50 nM
COc1ccccc1CNC(=N)Nc1nc(-c2ccccn2)cs1 [Example 41, N-(2-methoxybenzyl)-N′-(4-pyridine-2-yl-1,3-thiazole-2-yl)guanidine]	< 50 nM
COc1cccc(OC)c1CNC(=N)Nc1nc(-c2ccc(N(C)C)cc2)cs1 [Example 110, N-(2,6-dimethoxybenzyl)-N′-{4-[4-(dimethylamino)phenyl]-1,3-thiazole-2-yl}guanidine hydrobromide]	< 50 nM
COc1cccc(F)c1CNC(=N)Nc1nc(-c2ccccc2)cs1 [Example 59, N-(2-fluoro-6-methoxybenzyl)-N′-(4-phenyl-1,3-thiazole-2-yl)guanidine]	< 50 nM
COc1ccccc1C(=O)NC(=N)Nc1nccs1 [Example 20, N-[Imino(1,3-thiazole-2-ylamino)methyl]-2-methoxybenzamide]	> 500 nM
COc1cccc(OC)c1CNC(=N)Nc1nc(-c2ccc(F)cc2F)cs1 [Example 91, N-[4-(2,4-difluorophenyl)-1,3-thiazole-2-yl]-N′-(2,6-dimethoxybenzyl)guanidine hydrobromide]	< 50 nM
COc1ccccc1CNC(=N)Nc1ncc(C)s1 [Example 54, N-(2-methoxybenzyl)-N′-(5-methyl-1,3-thiazole-2-yl)guanidine (2E)-But-2-endioate]	< 50 nM
COc1cccc(OC)c1CNC(=N)Nc1nc(-c2ccccc2)ns1 [Example 105, N′-(2,6-dimethoxybenzyl)-N-(3-phenyl-1,2,4-thiadiazole-5-yl)guanidine×0.5 (2E)-But-2-endioate]	> 500 nM
COc1ccccc1CNC(=N)Nc1nnc(C)[nH]1 [Example 185, N-(2-methoxybenzyl)-N′-(5-methyl-4H-1,2,4-triazole-3-yl)guanidine acetate]	> 500 nM
COc1cccc(C)c1CNC(=N)Nc1nc(-c2ccc(F)cc2)cs1 [Example 138, N-[4-(4-fluorophenyl)-1,3-thiazole-2-yl]-N′-(2-methoxy-6-methylbenzyl)guanidine]	< 50 nM
COc1ccc(F)cc1CNC(=N)Nc1nc(C)cs1 [Example 130, N-(5-fluoro-2-methoxybenzyl)-N′-(4-methyl-1,3-thiazole-2-yl)guanidine fumarate]	50 to 500 nM
COc1cccc(OC)c1CNC(=N)Nc1nc(-c2cccnc2)cs1 [Example 50, N-(2,6-dimethoxybenzyl)-N′-(4-pyridine-3-yl-1,3-thiazole-2-yl)guanidine acetate]	< 50 nM
COc1ccccc1CNC(=N)Nc1nc(-c2ccccc2Cl)cs1 [Example 43, N-[4-(2-chlorophenyl)-1,3-thiazole-2-yl]-N′-(2-methoxybenzyl)guanidine (2E)-But-2-endioate]	50 to 500 nM
COc1cccc(OC)c1CNC(=N)Nc1nc(-c2ccc(C)cc2)cs1 [Example 57, N-(2,6-dimethoxybenzyl)-N′-[4-(4-methylphenyl)-1,3-thiazole-2-yl]guanidine]	< 50 nM
COc1cccc(OC)c1CNC(=N)Nc1nc(C(C)C)cs1 [Example 131, N-(2,6-dimethoxybenzyl)-N′-(4-isopropyl-1,3-thiazole-2-yl)guanidine]	< 50 nM
COc1ccccc1CNC(=N)Nc1cc(-c2ccccc2)[nH]n1 [Example 201, N-(2-methoxybenzyl)-N′-(5-phenyl-1H-pyrazole-3-yl)guanidine]	< 50 nM

Compound	Ki
COc1ccccc1CNC(=N)Nc1nnc(-c2ccccc2)s1 [Example 175, N-(2-methoxybenzyl)-N′-(5-phenyl-1,3,4-thiadiazole-2-yl)guanidine acetate]	> 500 nM
COc1ccc(C(F)(F)F)cc1CNC(=N)Nc1nc(-c2ccccc2)cs1 [Example 221, N-[2-methoxy-5-(trifluoromethyl)benzyl]-N′-(4-phenyl-1,3-thiazole-2-yl)guanidine]	> 500 nM
COc1cccc(OC)c1CNC(=N)Nc1ccn(-c2ccccc2)n1 [Example 219, N-(2,6-dimethoxybenzyl)-N′-(1-phenyl-1H-pyrazole-3-yl)guanidine]	< 50 nM
N-[4-(2-{[[(2,6-dimethoxybenzyl)amino](imino)methyl]amino}-1,3-thiazole-4-yl)phenyl]acetamide acetate [Example 79]	< 50 nM
COC(=O)Cc1csc(NC(=N)NCc2c(OC)cccc2OC)n1 [Example 49, Methyl-(2-{[[(2,6-dimethoxybenzyl)amino](imino)methyl]amino}-1,3-thiazole-4-yl)acetate]	< 50 nM
N=C(NCc1ccccc1C(F)(F)F)Nc1nccs1 [Example 18, N-1,3-thiazole-2-yl-N′[2-(trifluoromethyl)benzyl]guanidine]	> 500 nM
COc1cccc(Cl)c1CNC(=N)Nc1nccs1 [Example 6, N-(2-chloro-6-methoxybenzyl)-N′-1,3-thiazole-2-ylguanidine hydrochloride]	< 50 nM
COc1cccc(Cl)c1CNC(=N)Nc1nc(-c2ccccc2)cs1 [Example 132, N-(2-chloro-6-methoxybenzyl)-N′-(4-phenyl-1,3-thiazole-2-yl)guanidine]	< 50 nM
COc1ccccc1CNC(=N)Nc1nc(-c2ccncc2)cs1 [Example 46, N-(2-methoxybenzyl)-N′-(4-pyridine-4-yl-1,3-thiazole-2-yl)guanidine]	< 50 nM
COc1ccccc1CNC(=N)Nc1nc(C(C)(C)C)cs1 [Example 37, N-(4-tert-butyl-1,3-thiazole-2-yl)-N′-(2-methoxybenzyl)guanidine (2E)-But-2-endioate]	50 to 500 nM
COc1ccccc1CNC(=N)Nc1nc(-c2ccc3c(c2)OCO3)cs1 [Example 101, N-[4-(1,3-benzodioxol-5-yl)-1,3-thiazole-2-yl]-N′-(2-methoxybenzyl)guanidine]	50 to 500 nM
COc1ccc2ccccc2c1CNC(=N)Nc1nc(-c2ccccc2)cs1 [Example 146, N-[(2-methoxy-1-naphthyl)methyl]-N′-(4-phenyl-1,3-thiazole-2-yl)guanidine]	50 to 500 nM
COc1cccc(OC)c1CNC(=N)Nc1ccn(C)n1 [Example 215, N-(2,6-dimethoxybenzyl)-N′-(1-methyl-1H-pyrazole-3-yl)guanidine]	< 50 nM
COc1ccccc1CNC(=N)Nc1nc(-c2ccc(OC(F)(F)F)cc2)cs1 [Example 100, N-(2-methoxybenzyl)-N′-{4-[4-(trifluoromethoxy)phenyl]-1,3-thiazole-2-yl}guanidine]	< 50 nM
COc1cccc(OC)c1CNC(=N)Nc1nc(-c2cc(-c3ccccc3)no2)cs1 [Example 83, N-(2,6-dimethoxybenzyl)-N′-[4-(3-phenylisoxazole-5-yl)-1,3-thiazole-2-yl]guanidine hydrobromide]	< 50 nM
COc1cccc(OC)c1CNC(=N)Nc1nc(CN(C)C)cs1 [Example 158, N-(2,6-Dimethoxybenzyl)-N′-{4-[(dimethylamino)methyl]-1,3-thiazole-2-yl}guanidine acetate]	< 50 nM
COc1cccc(C)c1CNC(=N)Nc1nc(-c2ccccn2)cs1 [Example 140, N-(2-methoxy-6-methylbenzyl)-N′-(4-pyridine-2-yl-1,3-thiazole-2-yl)guanidine]	< 50 nM
COc1cccc(OC)c1CNC(=N)Nc1nc(-c2ccc(Cl)cc2)cs1 [Example 38, N-[4-(4-chlorophenyl)-1,3-thiazole-2-yl]-N′-(2,6-dimethoxybenzyl)guanidine]	50 to 500 nM
COc1cccc(OC)c1CNC(=N)Nc1cc(-c2ccc(C)cc2)[nH]n1 [Example 207, N-(2,6-dimethoxybenzyl)-N′-[5-(4-methylphenyl)-1H-pyrazole-3-yl]guanidine]	< 50 nM
N=C(NCc1cccc(Cl)c1)Nc1nccs1 [Example 13, N-(3-chlorobenzyl)-N′-1,3-thiazole-2-ylguanidine hydrochloride]	> 500 nM
COc1cccc(OC)c1CNC(=N)Nc1nc(-c2ccc(OC(F)(F)F)cc2)cs1 [Example 64, N-(2,6-dimethoxybenzyl)-N′-{4-[4-(trifluoromethoxy)phenyl]-1,3-thiazole-2-yl}guanidine hydrobromide]	< 50 nM
